Source: patent publication US5869500A, “Pyridone compounds useful in treating Alzheimer's disease” (Hoffmann-La Roche Inc., priority 1996, dated 1999)
pIC50: −log10 of the molar value.

Test system: Aβ production in HEK cells over-expressing mutated β-APP (SFAD)
Test: Aβ production inhibition, sandwich-ELISA in HEK cells, over-expressed mutated β-APP (SE-SFAD)
Assay type: cell-based, human
Settings: for pIC50: based on the respective plateau of maximum inhibition; for Emax: maximum inhibition plateau, read-out: SE-SFAD max. inhibition %
Description: The effect of test substances on the inhibition of Aβ-amyloid production can be measured in the supernatant of cell cultures of β-APP expressed cells using ELISA tests or other quantitative determination methods for β-APP degradation products. Typically, 8×10^5 cells (e.g. HEK cells, which express recombinant human β-APP variants) are plated out in each well of a culture dish having 24 wells in growth media such as e.g. OPTIMEM (Gibco) and the test compound is then added. After an incubation period of 24 to 48 hours at 37° C. in a 10% CO2 atmosphere the supernatant is removed from the cell cultures and the β-APP degradation products (e.g. Aβ or β-[…]) are determined with the aid of ELISA (or sandwich ELISA) analysis or by means of quantitative immunoprecipitation (after metabolic radiolabelling of the cell proteins). Typically, 300 μl of the cell supernatant are tested according to the state of the art for ELISA tests in culture dishes having 96 wells. In the case of sandwich ELISA for Aβ, the binding antibody can be directed against the first 16 amino acids of Aβ-peptide (e.g. 6E10 Senetek, Maryland Heights, Mo.) and the detection antibody can be directed against amino acids 17-40 or 17-42 of Aβ and carries a detection system such as e.g. peroxidase. A simple ELISA test with an antibody, e.g. 22C11 (Boehringer Mannheim), can be used as the test for […]; the second antibody can be an anti-(mouse) Ig having a detection system, such as e.g. peroxidase. The peroxidase reaction can be carried out e.g. using a TMB substrate (BioRAD) and the measurements can be carried out at 650 nm using an ELISA reading apparatus. […] SE-SFAD signifies the Aβ production inhibition measured using sandwich-ELISA in HEK cells, SFAD signifies over-expressed mutated β-APP, and SE-WT signifies the Aβ production inhibition measured using sandwich-ELISA in HEK cells which over-express Wild type β-APP. The IC50 values are based on the respective plateau of maximum inhibition.

[1] = Homo sapiens, HEK293, HEK cells

SMILES | pIC50 [1] | Emax [1] [%] | pIC50 (HEK cells)
COCCN(C(=O)c1cc(-c2ccc(Oc3ccccc3)cc2)c(=O)n2ccc3ccsc3c12)c1ccccc1 [Compound 101, 7--Oxo-8-(4-phenoxy-phenyl)-7H-thieno[2,3-a]quinolizine-10-carboxylic acid (2-methoxy-ethyl)-phenyl-amide] | 6.05 | 100 | –
COCCNC(=O)c1cc(-c2ccc(Oc3ccccc3)cc2)c(=O)n2ccc3ccsc3c12 [Compound 98, 7-Oxo-8-(4-phenoxy-phenyl)-7H-thieno[2,3-a]quinolizine-10-carboxylic acid (2-methoxy-ethyl)-amide] | 5.62 | 70 to 90 | –
COC(=O)c1cc(-c2ccccc2OC)c(=O)n2ccc3ccsc3c12 [Compound 114, Methyl 8-(2-methoxy-phenyl)-7-oxo-7H-thieno[2,3-a]quinolizine-10-carboxylate] | – | 70 | 5.20
COCCN(CC1CC1)C(=O)c1cc(-c2ccc(OCc3ccccc3)cc2)c(=O)n2ccc3c(ncn3C)c12 [Compound 104, 8-(4-Benzyloxy-phenyl)-3-methyl-7-oxo-3,7-dihydro-imidazo [4,5-a]-quinolizine-10-carboxylic acid cyclopropylmethyl-(2-methoxy-ethyl)-amide] | 5.52 | 100 | –
COCCN(Cc1ccccc1)C(=O)c1cc(-c2ccc(OCc3ccccc3)cc2)c(=O)n2ccc3ccsc3c12 [Compound 71, 8-(4-Benzyloxy-phenyl)-7-oxo-7H-thieno[2,3-a]quinolizine-10-carboxylic acid benzyl-(2-methoxy-ethyl)-amide] | 6.24 | 100 | –
Cn1ccnc1COC(=O)c1cc(-c2ccccc2)c(=O)n2ccc3ccsc3c12 [Compound 27, 1-Methyl-1H-imidazol-2-yl-methyl 7-oxo-8-phenyl-7H-thieno[2,3-a]-quinolizine-10-carboxylate methanesulphonate] | 4.30 | 100 | –
COCCNC(=O)c1cc(-c2ccccc2OC)c(=O)n2ccc3ccsc3c12 [Compound 115, 8-(2-Methoxy-phenyl)-7-oxo-7H-thieno[2,3-a]quinolizine-10-carboxylic acid (2-methoxy-ethyl)-amide] | 4.70 | 50 | –
CCN(CC)Cc1cccc(COC(=O)c2cc(-c3ccccc3)c(=O)n3ccc4ccsc4c23)c1 [Compound 60, 3-Diethylamino-methyl-benzyl 7-oxo-8-phenyl-7H-thieno[2,3-a]-quinolizine-10-carboxylate methanesulphonate] | 5.92 | 100 | –
COCCN(CCOC)C(=O)c1cc(-c2ccc(C)cc2)c(=O)n2ccc3ccsc3c12 [Compound 150, 7--Oxo-8-p-tolyl-7H-thieno[2,3-a]quinolizine-10-carboxylic acid bis-(2-methoxy-ethyl)-amide] | 5.57 | 100 | –
CCN(CCOC)C(=O)c1cc(-c2ccc(C(C)(C)C)cc2)c(=O)n2ccc3ccsc3c12 [Compound 107, 8-(4-tert-Butyl-phenyl)-7-oxo-7H-thieno[2,3-a]quinolizine-10-carboxylicacid ethyl-(2-methoxy-ethyl)-amide] | 5.52 | 20 | –
CCCN(CCOC)C(=O)c1cc(-c2ccc(OC)cc2)c(=O)n2ccc3ccsc3c12 [Compound 148, 8-(4-Methoxy-phenyl)-7-oxo-7H-thieno[2,3-a]quinolizine-10-carboxylic acid (2-methoxy-ethyl)-propyl-amide] | 5.30 | 100 | –
COc1cccc(-c2cc(C(=O)Nc3ccc(OC)c(OC)c3)c3c4sccc4ccn3c2=O)c1 [Compound 123, 8-(3-Methoxy-phenyl)-7-oxo-7H-thieno[2,3-a]quinolizine-10-carboxylic acid (3,4-dimethoxy-phenyl)-amide] | 6.10 | 100 | –
COCCN(C(=O)c1cc(-c2ccc(C(C)(C)C)cc2)c(=O)n2ccc3ccsc3c12)c1ccccc1 [Compound 111, 8-(4-tert-Butyl-phenyl)-7-oxo-7H-thieno[2,3-a]quinolizine-10-carboxylicacid (2-methoxy-ethyl)-phenyl-amide] | 5.60 | 100 | –
COCCN(C(=O)c1cc(-c2ccc(OCc3ccccc3)cc2)c(=O)n2ccc3cc(C(=O)N(C)C)sc3c12)c1ccccc1 [Compound 76, 8-(4-Benzyloxy-phenyl)-7-oxo-7H-thieno[2,3-a]quinolizine-2,10-dicarboxylicacid 2-dimethylamide 10-[(2-methoxy-ethyl)-phenyl-amide]] | 5.55 | 40 | –
CCN(CCOC)C(=O)c1cc(-c2ccc(OCc3ccccc3)cc2)c(=O)n2ccc3ccsc3c12 [Compound 68, 8-(4-Benzyloxy-phenyl)-7-oxo-7H-thieno[2,3-a]quinolizine-10-carboxylic acid ethyl-(2-methoxy-ethyl)-amide] | 5.10 | 25 | –
CCN(CCOC)C(=O)c1cc(-c2ccc(OC)cc2)c(=O)n2ccc3ccsc3c12 [Compound 144, 8-(4-Methoxy-phenyl)-7-oxo-7H-thieno[2,3-a]quinolizine-10-carboxylic acid ethyl-(2-methoxy-ethyl)-amide] | 5.70 | 40 | –
COCCN(C(=O)c1cc(-c2ccc(OCc3ccccc3)cc2)c(=O)n2ccc3ccsc3c12)C(C)C [Compound 69, 8-(4-Benzyloxy-phenyl)-7-oxo-7H-thieno[2,3-a]quinolizine-10-carboxylic acid isopropyl-(2-methoxy-ethyl)-amide] | 6.10 | 45 | –
COCCN(C(=O)c1cc(-c2ccccc2N)c(=O)n2ccc3ccsc3c12)c1ccccc1 [Compound 153, 8-(2-Amino-phenyl)-7-oxo-7H-thieno[2,3-a]chinolizine-10-carboxylic acid (2-methoxy-ethyl)-phenyl-amide] | – | 20 to 40 | –
COC(=O)c1cc(-c2ccccc2)c(=O)n2ccc3ccsc3c12 [Compound 15, Methyl 7-oxo-8-phenyl-7H-thieno[2,3-a]quinolizine-10-carboxylate] | 5.52 | 60 | –
COCCNC(=O)c1cc(-c2ccc(C(C)(C)C)cc2)c(=O)n2ccc3ccsc3c12 [Compound 110, 8-(4-tert-Butyl-phenyl)-7-oxo-7H-thieno[2,3-a]quinolizine-10-carboxylicacid (2-methoxy-ethyl)-amide] | 5.21 | 95 | –
COCCN(CC1CC1)C(=O)c1cc(-c2ccc(C(C)(C)C)cc2)c(=O)n2ccc3ccsc3c12 [Compound 112, 8-(4-tert-Butyl-phenyl)-7-oxo-7H-thieno[2,3-a]quinolizine-10-carboxylicacid cyclopropylmethyl-(2-methoxy-ethyl)-amide] | 5.82 | 100 | –
COCCN(CC1CC1)C(=O)c1cc(-c2ccc(OCc3ccccc3)cc2)c(=O)n2ccc3ccsc3c12 [Compound 70, 8-(4-Benzyloxy-phenyl)-7-oxo-7H-thieno[2,3-a]quinolizine-10-carboxylic acid cyclopropylmethyl-(2-methoxy-ethyl)-amide] | > 6.00 | 100 | –
COCCN(C(=O)c1cc(-c2ccc(OCc3ccccc3)cc2)c(=O)n2ccc3ccsc3c12)c1ccccc1 [Compound 72, 8-(4-Benzyloxy-phenyl)-7-oxo-7H-thieno[2,3-a]quinolizine-10-carboxylic acid (2-methoxy-ethyl)-phenyl-amide] | 6.30 | 100 | –
